Values quoted from earlier work as cited in US20200138710A1, “COMPOSITIONS WITH PERMEATION ENHANCERS FOR DRUG DELIVERY” (Children's Medical Center Corporation, priority 2016, published 2020).

Compound	Log P
CC[C@H]1OC(=O)[C@H](C)[C@@H](O[C@H]2C[C@@](C)(OC)[C@@H](O)[C@H](C)O2)[C@H](C)[C@@H](O[C@@H]2O[C@H](C)C[C@H](N(C)C)[C@H]2O)[C@](C)(O)C[C@@H](C)CN(C)[C@H](C)[C@@H](O)[C@]1(C)O [Azithromycin]	4.02
CO/N=C(\C(=O)N[C@@H]1C(=O)N2C(C(=O)O)=C(COC(N)=O)CS[C@H]12)c1ccco1 [Cefuroxime]	−0.16
CO/N=C(\C(=O)N[C@@H]1C(=O)N2C(C(=O)O)=C(CSc3nc(=O)c(=O)[nH]n3C)CS[C@H]12)c1csc(N)n1 [Ceftriaxone]	−1.47
